Where a SMILES comes first, the peptide text is derived from it. The star is where a group is joined. Cbz = O=C(OCc1ccccc1)*; CH2F = FC*
What was measured:
[1] = test system: cleaved caspase 3; experiment: Western blot of cleaved caspase 3 in B16F10 cells; format: cell-based, murine; conditions: GSH pretreatment 4 h
Procedure: (§1) As for the determination of cleaved-GSDME and cleaved-caspase-3, B16F10 cells were seeded in 6-well culture plates (2×10^5 cells per well) and cultured for 24 h. Then the medium in the corresponding wells except the negative control was replaced with 1 mL of medium containing ferritin degraders, albumin nanoparticles, or the degrader with inhibitors at the indicated concentrations. Incubation for another 6 or 8 h was used to test the cleaved-caspase-3, while treatment for another 16 or 20 h was used to test cleaved-GSDME. The following procedures were the same as mentioned above.

[2] = test system: GSDME-N; experiment: Western blot of cleaved N-terminal GSDME (GSDME-N) in B16F10 cells; format: cell-based, murine; conditions: GSH pretreatment 4 h
Procedure: as §1

[3] = molecular target: T1, apoferritin from equine spleen (Equus caballus, UniProt P02791); experiment: Isothermal titration calorimetry (ITC) binding to ferritin
T1 construct: the apoferritin from equine spleen (A3660, Sigma-Aldrich) that is not combined with iron was used; purchased Sigma-Aldrich A3660; host or cells: equine spleen (tissue-derived)
T1 sequence (P02791 2-175 limits assumed): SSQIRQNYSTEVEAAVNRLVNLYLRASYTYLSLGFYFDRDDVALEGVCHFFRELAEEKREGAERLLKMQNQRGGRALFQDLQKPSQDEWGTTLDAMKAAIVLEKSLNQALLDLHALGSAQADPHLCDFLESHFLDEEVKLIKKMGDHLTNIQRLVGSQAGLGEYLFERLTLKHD
Procedure: As for the ferritin proteins, the apoferritin from equine spleen (A3660, Sigma-Aldrich) that is not combined with iron was used. Before the ITC test, 1 mL of apoferritin in glycerol solution (50% glycerol and 0.075 M NaCl) was placed in a dialysis bag with a molecular weight cut-off of 3 kDa. The dialysis bags were then immersed in the prepared solution (20 mM Tris-HCl, pH 8.5, and 130 mM NaCl) and stirred at room temperature. The dialysis buffer was changed every 24 h for three times, and the last buffer was collected and 0.05% DMSO was added to serve as the ITC buffer. As for the oleic acid, 12 μM apoferritin in the ITC buffer was placed in the ITC cell, and the syringe was full of 250 μM oleic acid in the same ITC buffer. Besides the first injection with 5 μL of the oleic acid solution, 18 aliquots with 10 μL of the oleic acid solution were titrated into the apoferritin solution with a time interval of 300 s. […] Besides the first injection with 1 μL of the apoferritin solution, 25 aliquots were titrated with a time interval of 300 s. Raw data were corrected for control titrations (the solution in the syringe into the blank ITC buffer in the cell) and integrated using Origin 7.0 (MicroCal). Binding kinetics parameters, including N, Kd, ΔH, and ΔS, were calculated using a single-class binding site model.

[4] = test system: T2, ferritin (Mus musculus); experiment: Western blot of ferritin expression (ferritin degradation) in B16F10 cells; format: cell-based, murine; conditions: Epox 1 μM pretreatment 1 h; for effect on DeFer-2-mediated ferritin degradation: DeFer-2 0.5 μM 12 h, VHL ligand 50 μM in excess
T2 construct: ferritin expression levels in B16F10 cells were evaluated; endogenous in cells; host or cells: B16F10 (murine melanoma)
Procedure: Western blot analysis: After various treatments, ferritin expression levels in B16F10 cells were evaluated to investigate the DeFer-2-mediated ferritin degradation. Briefly, B16F10 cells were seeded in 6-well culture plates (5×10^4 cells per well) and cultured for 24 h. Then the medium in the corresponding wells except the negative control was replaced with 1 mL of medium containing ferritin degraders, albumin nanoparticles, the epimer formulations, the combination of VHL ligand and oleic acid, or the combination of the degrader and VHL ligand at the indicated concentrations. […] The lysates were centrifuged at 12,000 rpm for 10 min at 4° C., followed by quantification of the total proteins in the supernatant through the bicinchoninic acid assay (BCA) assay. Afterward, the proteins in the supernatant were mixed with the loading buffer and heated at 95° C. for 15 min. Equal amounts of proteins from different samples were loaded into 15% SDS-polyacrylamide gel (20 μg protein per lane) to separate target proteins. After separation, proteins were transferred to polyvinylidene fluoride (PVDF) membranes before the membranes were blocked with 5% nonfat milk in PBST. Then proteins were incubated with primary antibodies overnight at 4° C., followed by the incubation with the goat-anti-rabbit IgG H&L (HRP) secondary antibodies at room temperature for 2 h. Finally, the bands were detected with electrochemiluminescence (ECL) western blot substrate for imaging, and ImageJ software was used for quantification.

[5] = test system: B16F10 cells; experiment: Cell viability evaluation by CCK-8 assay; conditions: B16F10 cells, DeFer-2 5 μM; DFOM 25 μM, Z-VAD 10 μM, NSCI 0.1 μM, VX-765 10 μM
Procedure: Cell viability evaluation: The cell viability of B16F10 cells treated with ferritin degraders with or without various inhibitors was evaluated by CCK-8 assay. Briefly, 5×10^3 cells were seeded in 96-well plates and cultured for 24 h for attachment. Then the medium in the corresponding wells, except the control, was replaced with 100 μL of medium containing the indicated degrader formulations with concentrations of 0.008, 0.04, 0.2, 1, and 5 μM. After incubation for 24 or 48 h, CCK-8 reagent was added and interacted with cells at 37° C. for 1 h. The absorbance was measured by a microplate reader (Infinite M Plex) at the detection wavelength of 450 nm.
For blocking assays with Z-VAD, NSCI, and VX-765, 5×10^3 cells were seeded in 96-well plates and cultured 24 h for attachment. Then the medium in the corresponding wells, except the control, was replaced with 100 μL of medium containing Z-VAD (10 μM), NSCI (0.1 μM), or VX-765 (10 μM). […] Following another 24-h incubation, CCK-8 reagents were added and interacted with cells at 37° C. for 1 h. The absorbance was measured by a microplate reader (Infinite® M Plex) at the detection wavelength of 450 nm. For blocking assays with DFOM, 5×10^3 cells were seeded in 96-well plates and cultured 24 h for attachment. […] Following another 20-h incubation, CCK-8 reagents were added and interacted with cells at 37° C. for 1 h. The absorbance was measured by a microplate reader (Infinite® M Plex) at the detection wavelength of 450 nm.

[6] = test system: B16F10 cells; experiment: LDH release assay; format: cell-based, murine; conditions: inhibitor pretreatment 4 h, DeFer-2 5 μM, NSCI 0.1 μM, VX-765 10 μM
Procedure: After incubation for 24 h, the cell samples were used to measure LDH release according to the manufacturer's instructions of CytoScan™ LDH Cytotoxicity Assay kit from G-Biosciences (St. Louis, MO, USA).
Following another 24-h incubation, the cell samples were used to measure LDH release according to the manufacturer's instructions of CytoScan™ LDH Cytotoxicity Assay kit from G-Biosciences (St. Louis, MO, USA).

N[C@@H](CCC(=O)N[C@@H](CS)C(=O)NCC(=O)O)C(=O)O [GSH, glutathione, reference compound]
effect of pretreatment on DeFer-2-caused caspase 3 activation [1]: substantially reduced activated caspase 3 | effect of pretreatment on DeFer-2-caused GSDME-N generation [2]: compromised by GSH pretreatment

CCCCCCCC/C=C\CCCCCCCC(=O)O [OA, oleic acid, reference compound]
Kd [3]: 12.8 ± 2.89 µM

Cc1ncsc1-c1ccc(CNC(=O)[C@@H]2C[C@@H](O)CN2C(=O)[C@@H](N)C(C)(C)C)cc1.Cl [VHL ligand, (2S,4R)-1-((S)-2-amino-3,3-dimethylbutanoyl)-4-hydroxy-N-(4-(4-methylthiazol-5-yl)benzyl) pyrrolidine-2-carboxamide hydrochloride, reference compound]
effect on DeFer-2-mediated ferritin degradation [4]: compromised

CC[C@H](C)[C@H](NC(=O)[C@H]([C@@H](C)CC)N(C)C(C)=O)C(=O)N[C@H](C(=O)N[C@@H](CC(C)C)C(=O)[C@@]1(C)CO1)[C@@H](C)O [Epox, epoxomicin, reference compound]
effect on aDeFer-2-mediated ferritin degradation ([4]; B16F10 cells, 0.5 μM, 12 h): compromised the aDeFer-2-mediated ferritin degradation | effect on DeFer-2-mediated ferritin degradation [4]: inhibited

COC(=O)C[C@H](NC(=O)[C@H](C)NC(=O)[C@@H](NC(=O)OCc1ccccc1)C(C)C)C(=O)CF [Z-VAD, Z-VAD(OMe)-FMK, reference compound] (Cbz-Val-Ala-Asp(OMe)-CH2F)
effect on DeFer-2-induced cytotoxicity / cell death [5]: compromised

CCO[C@@H]1OC(=O)C[C@@H]1NC(=O)[C@@H]1CCCN1C(=O)[C@@H](NC(=O)c1ccc(N)c(Cl)c1)C(C)(C)C [VX-765, reference compound]
effect on LDH release caused by DeFer-2 [6]: barely affected | effect on DeFer-2-induced cytotoxicity / cell death [5]: remained unchanged
